{"source": "patent US11266616B2", "about": "“Compositions and methods for inhibiting kinase activity” (BRANDEIS UNIVERSITY, priority 2016, dated 2022)", "key": {"[1]": {"biological_target": "T1, TPX2 binding site of Aurora A kinase (Homo sapiens, UniProt O14965)", "T1 construct": "Codon-optimized Aurora A^122-403 in pET28a and untagged λPP in T7-7 plasmid were co-transformed in BL21(DE3) cells; inferred from pET28a and the NiNTA column) (cleaved yes); made in house; host or cells: E. coli BL21(DE3) (Aurora A); TPX2 not described", "T1 sequence (O14965 122-403)": "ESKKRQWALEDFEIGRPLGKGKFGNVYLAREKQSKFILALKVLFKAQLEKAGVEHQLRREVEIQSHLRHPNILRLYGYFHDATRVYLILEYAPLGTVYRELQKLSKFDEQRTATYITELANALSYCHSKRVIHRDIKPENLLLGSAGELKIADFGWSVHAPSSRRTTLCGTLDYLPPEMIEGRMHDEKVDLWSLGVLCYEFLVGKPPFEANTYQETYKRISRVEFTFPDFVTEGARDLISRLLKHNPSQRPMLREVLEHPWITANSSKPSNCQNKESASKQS", "assay": "NMR titration (1H-15N HSQC) of TPX2, Aurora A and PS48", "settings": "FIGS. 27A-27C", "method": "FIGS. 27A-27C is a set of plots showing results of NMR titration showing that PS48 binds to the TPX2 binding site of Aurora A kinase. FIG. 27A is a plot showing ^1H-^15N heteronuclear single quantum coherence (HSQC) spectra of selected titration points (250 μM TPX2, 250 μM TPX2+100 μM Aurora A, and 250 μM TPX2+100 μM Aurora A+1.5 mM PS48). A magnified view showing separation of peaks is indicated by an arrow. FIG. 27B is a plot showing changes in chemical shift (Δδ) at 200 μM TPX2 and varying concentrations of Aurora A. FIG. 27C is a plot showing changes in chemical shift (Δδ) at 200 μM TPX2 and 100 μM Aurora A and varying concentrations of PS48."}, "Aurora A kinase and TPX2": {"biological_target": "T2, Aurora A kinase and TPX2 (Homo sapiens, UniProt O14965, T288V)", "T2 construct": "1 μM A^122-403 T288V, 100 μM TPX2^1-45 and 1 mM kemptide was used", "T2 sequence (O14965 122-403 T288V)": "T1 sequence (O14965 122-403) with T167V", "assay": "Kemptide phosphorylation by dephosphorylated Aurora A kinase and TPX2 with increasing PS48 (TPX2 competition)", "type": "biochemical", "settings": "1 μM A122-403 T288V, 100 μM TPX2 1-45, 1 mM kemptide; FIGS. 28A-28B", "method": "FIGS. 28A-28B is a set of plots showing PS48 binds to the TPX2 binding site of Aurora A kinase and PS48 competes with TPX2 for binding to Aurora A kinase in vitro. FIG. 28A is a plot showing measurements of phosphorylation of kemptide (a peptide substrate for Aurora A kinase) when incubated with dephosphorylated Aurora A kinase and TPX2 and various increasing amounts of PS48. […] In the assays shown, 1 μM A^122-403 T288V, 100 μM TPX2^1-45 and 1 mM kemptide was used.\nAurora A, either phosphorylated/dephosphorylated wild type or mutant protein, was mixed with either AP ([…]) (SEQ ID NO: 5), Kemptide (LRRASLG) (SEQ ID NO: 6), or Lats2 ([…]) (SEQ ID NO: 7), in the absence or presence of 50 μM TPX2 in kinase buffer (20 mM TrisHCl, 200 mM NaCl, 3% [vol/vol] glycerol, 20 mM MgCl2, 1 mM TCEP, pH 7.50). These substrates comprise the consensus sequence for Aurora A ([R/K/N]—R—X—[S/T]-B where B is any hydrophobic residue with the exception of Pro) (Ferrari et al., 2005, Biochem. J., 390(Pt 1):293-302; Ohashi et al., 2006, Oncogene, 25:7691-7702; Sardon et al., 2010, EMBO Reports, 11:977-984). Peptides were ordered through Genscript. For HPLC-based activity assays the following protocol was used. The reaction was initiated with the addition of 5 mM ATP. […]"}, "[2]": {"biological_target": "T3, ATP-binding site of Aurora A kinase (Homo sapiens, UniProt O14965)", "T3 construct": "Codon-optimized Aurora A^122-403 in pET28a and untagged λPP in T7-7 plasmid were co-transformed in BL21(DE3) cells; inferred from pET28a and the NiNTA column) (cleaved yes); made in house; host or cells: E. coli BL21(DE3), co-expressed with lambda protein phosphatase", "T3 sequence (O14965 122-403)": "T1 sequence (O14965 122-403)", "assay": "TNP-ATP fluorescence titration of dephosphorylated Aurora A kinase with or without PS48", "settings": "FIGS. 24-26", "method": "TNP-ATP is excited at a wavelength of 479 nm and fluoresces at 500-600 nm. FIG. 26B is a plot showing an emission spectrum of TNP-ATP. FIG. 26C is a plot showing fluorescence spectroscopy of dephosphorylated Aurora A kinase incubated with varying amounts of TNP-ATP. FIG. 26D is a plot showing fluorescence spectroscopy of dephosphorylated Aurora A kinase and PS48 incubated with varying amounts of TNP-ATP. FIG. 26E is a plot showing fluorescence intensities measured during titration of TNP-ATP in the Aurora A kinase and PS48 sample and Aurora A kinase only sample. The dissociation constant of TNP-ATP binding to Aurora A kinase in the absence and presence of PS48 is shown at the bottom of FIG. 26E."}}, "note": "Positions count from the first letter of the chain named. Entries after “also recorded” stand apart in the source; their conditions may differ.", "data": [{"smiles": "O=C(O)/C=C(/CCc1ccc(Cl)cc1)c1ccccc1", "note": "[PS48]", "values": [{"measurement": "binding site of PS48 on Aurora A kinase", "setting": "[1]", "value": "bound to the TPX2 binding site of Aurora A kinase"}, {"measurement": "effect of PS48 on kinase activity of Aurora A incubated with TPX2", "setting": "Aurora A kinase and TPX2", "value": "inhibits kinase activity by competing off TPX2 binding; also recorded: disrupting binding of TPX2 to Aurora A kinase"}, {"measurement": "effect of PS48 on the ATP binding site of Aurora A kinase (TNP-ATP binding)", "setting": "[2]", "value": "does not affect binding of TNP-ATP; also recorded: does not bind to the ATP binding site"}]}]}
